Measured values from patent publication US8557819B2 (priority 2005, dated 2013).
Counter-ions that a name gives are not always drawn.

Molecular target: nicotinic receptors containing the α7 subunit (Rattus norvegicus, UniProt Q05941)
Assay: biochemical
Type: binding

Chain of nicotinic receptors containing the α7 subunit (Q05941 23-502): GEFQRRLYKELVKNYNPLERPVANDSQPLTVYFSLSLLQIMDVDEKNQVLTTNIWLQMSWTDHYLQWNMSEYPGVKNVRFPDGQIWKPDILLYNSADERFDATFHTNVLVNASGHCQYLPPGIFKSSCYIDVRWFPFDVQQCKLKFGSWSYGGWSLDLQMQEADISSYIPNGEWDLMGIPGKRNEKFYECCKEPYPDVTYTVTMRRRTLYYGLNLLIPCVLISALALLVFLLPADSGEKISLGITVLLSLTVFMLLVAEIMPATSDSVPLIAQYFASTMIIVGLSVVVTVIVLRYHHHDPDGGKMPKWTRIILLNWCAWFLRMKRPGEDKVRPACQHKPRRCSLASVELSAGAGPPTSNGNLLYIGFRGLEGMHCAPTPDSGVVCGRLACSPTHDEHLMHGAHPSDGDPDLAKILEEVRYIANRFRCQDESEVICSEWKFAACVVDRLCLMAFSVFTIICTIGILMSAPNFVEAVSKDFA

Row | Structure (SMILES) | IC50 [nM]
1 | Cc1csc(-c2ccc(C34CCCN(CC3)C4)nn2)c1 (racemic) [Compound 3] | 428
2 | COc1ccc(-c2ccc(C34CCCN(CC3)C4)nn2)cc1 (racemic) [Compound 7] | 164
3 | c1coc(-c2ccc(C34CCCN(CC3)C4)nn2)c1 (racemic) [Compound 8] | 442

Test system: not given
Assay: not given

Row | Structure (SMILES) | melting point [°C]
4 | c1c[nH]c(-c2ccc(C34CCCN(CC3)C4)nn2)c1 (stereo not drawn) | 207 to 209
5 | c1c[nH]c(-c2ccc(C34CCCN(CC3)C4)nn2)n1 (stereo not drawn) (as salt: HBr) | 290 to 292
6 | c1n[nH]cc1-c1ccc(C23CCCN(CC2)C3)nn1 (stereo not drawn) (as salt: HBr) [20] | 221 to 223
7 | c1n[nH]cc1-c1ccc(C23CCCN(CC2)C3)nn1 (stereo not drawn) (as salt: HBr) [22] | 295 to 297
8 | c1cc(-c2ccc(C34CCCN(CC3)C4)nn2)co1 (stereo not drawn) (as salt: HCl) | 226 to 228
9 | c1nc(-c2ccc(C34CCCN(CC3)C4)nn2)c[nH]1 (stereo not drawn) (as salt: HCl) [18] | 271 to 273
10 | c1cncc(-c2ccc(C34CCCN(CC3)C4)nn2)c1 (racemic) | 131 to 133
11 | c1cc(-c2ccc(C34CCCN(CC3)C4)nn2)co1 (racemic) | 140 to 141
12 | Clc1ccc(C23CCCN(CC2)C3)nn1 (racemic) (as salt: HCl) | 234 to 235
13 | COc1ccc(-c2ccc(C34CCCN(CC3)C4)nn2)cc1 (racemic) (as salt: HCl) [Compound 7] | 229 to 231
14 | c1coc(-c2ccc(C34CCCN(CC3)C4)nn2)c1 (racemic) (as salt: HCl) [Compound 8] | 274 to 275
15 | Cc1csc(-c2ccc(C34CCCN(CC3)C4)nn2)c1 (racemic) [Compound 3] | 139 to 140
